In US11197908B2, “Peptoids and methods for attenuating inflammatory response” (THE BOARD OF TRUSTEES OF THE UNIVERSITY OF ARKANSAS, priority 2018, dated 2021):
Where a SMILES comes first, the peptide text is derived from it. [ ]: non-standard residue; d: D form. N(1S-Me-propyl)Gly = CC[C@H](C)NCC(=O)O; Nspe = C[C@H](NCC(=O)O)c1ccccc1; Nlys = NCCCCNCC(=O)O

Key:
Format in all cases: cell-based, human
[1] = test system: RAGE; assay: Reversal of LPS-induced RAGE expression in previously stimulated THP-1 macrophages (confocal imaging); details: additional 24 h, vs LPS alone
Experimental: THP-1 monocytes were differentiated as described above 20. Upon differentiation, these cells were then incubated (48 h) with media containing low-dose (2 ng/mL) LPS as a chronic pro-inflammatory stimulus 21. Following incubation, JPT1a or JPT1 was added for final concentrations of 25, 5, and 1 μM 22, and cells were incubated an additional 24 h. Treatment with 2 ng/mL LPS alone served as a positive control, while treatment with an equivalent volume of buffer diluted into media served as the vehicle. Media was collected for later assessment of cytokines via ELISA as described above 23. Cells were fixed and stained for RAGE, phalloidin (cytoplasmic marker), and DAPI (nuclear marker) 24. […] 25 All multi-channel images were converted to TIFF file format via ImageJ64 software for quantitative image analysis using a custom subroutine written in Matlab™ software to obtain the average RAGE expression per volume of cells, and the data generated was assessed for statistical significance using GraphPad Prism 7.0 software 26.
After 48 hours, half of the supernatant was removed, treated with JPT1a (dashed-grey) at final concentrations of 25, 5, 1, and 0 μM (positive control), and then added back to respective samples. […] Images were analyzed via custom MATLAB™ subroutine to determine the average quantity of RAGE present within a given volume of cells. […]

[2] = test system: IL-8; assay: IL-8 in supernatant of THP-1 macrophages co-incubated with peptoid and LPS (ELISA); details: 3 days, vs LPS alone
Experimental: THP-1 monocytes were differentiated into macrophages through exposure to phorbol 12-myristate 13-acetate (PMA) for three days prior to experimentation 10. […] Upon differentiation, these cells were then incubated (3 days) with media containing JPT1a (50, 10, or 2 μM) alone or JPT1a (50, 10, or 2 μM) in the presence of low-dose (2 ng/mL) lipopolysaccharide (LPS) as a chronic pro-inflammatory stimulus 11. Treatment with 2 ng/mL LPS alone served as a positive control, while treatment with an equivalent volume of buffer diluted into media served as the vehicle. Cellular supernatant was harvested on day 3 12; these samples were immediately centrifuged at 1200 rpm for 10 min at 25° C. to remove any cells or debris. […] All multi-channel images were converted to TIFF file format via ImageJ64 software for quantitative image analysis using a custom subroutine written in Matlab™ software to obtain the average RAGE expression per volume of cells, and the data generated was assessed for statistical significance using GraphPad Prism 7.0 software 15.
(§1) As shown in FIGS. 2B-2D, THP-1 macrophages were treated with JPT1a alone (white) or in the presence of a chronic low-dose (2 ng/mL) of LPS (grey), for 3 days prior to supernatant harvest and storage. Examination of the supernatant via ELISA determined the concentrations of (FIG. 2B) IL-1β, (FIG. 2C) IL-6, and (FIG. 2D) IL-8. […]

[3] = test system: IL-6; assay: IL-6 expression in previously LPS-stimulated THP1 macrophages (ELISA); details: 25, 5, 1 μM added after 48 h of 2 ng/mL LPS, additional 24 h
Experimental: (§2) THP-1 monocytes were differentiated as described above 20. Upon differentiation, these cells were then incubated (48 h) with media containing low-dose (2 ng/mL) LPS as a chronic pro-inflammatory stimulus 21. Following incubation, JPT1a or JPT1 was added for final concentrations of 25, 5, and 1 μM 22, and cells were incubated an additional 24 h. Treatment with 2 ng/mL LPS alone served as a positive control, while treatment with an equivalent volume of buffer diluted into media served as the vehicle. Media was collected for later assessment of cytokines via ELISA as described above 23. Cells were fixed and stained for RAGE, phalloidin (cytoplasmic marker), and DAPI (nuclear marker) 24. Each channel was imaged with a Zeiss LSM 510 META Confocal Scanning Laser Microscope using a plan-neofluar 40×/1.3 oil DIC immersion objective; three of these multi-channel images were obtained from each slide in each experiment. 25 All multi-channel images were converted to TIFF file format via ImageJ64 software for quantitative image analysis using a custom subroutine written in Matlab™ software to obtain the average RAGE expression per volume of cells, and the data generated was assessed for statistical significance using GraphPad Prism 7.0 software 26.
(§3) As shown in FIGS. 4B-4D, THP1 macrophages were treated with low-dose LPS at 2 ng/mL. […]

[4] = test system: IL-8; assay: IL-8 expression in previously LPS-stimulated THP1 macrophages (ELISA); details: 25, 5, 1 μM added after 48 h of 2 ng/mL LPS, additional 24 h
Experimental: as §2, §3

[5] = test system: RAGE; assay: RAGE upregulation in THP-1 macrophages co-incubated with peptoid and low-dose LPS (confocal imaging); details: 3 days
Experimental: (§4) THP-1 monocytes were differentiated into macrophages through exposure to phorbol 12-myristate 13-acetate (PMA) for three days prior to experimentation 10. […] Upon differentiation, these cells were then incubated (3 days) with media containing JPT1a (50, 10, or 2 μM) alone or JPT1a (50, 10, or 2 μM) in the presence of low-dose (2 ng/mL) lipopolysaccharide (LPS) as a chronic pro-inflammatory stimulus 11. Treatment with 2 ng/mL LPS alone served as a positive control, while treatment with an equivalent volume of buffer diluted into media served as the vehicle. Cellular supernatant was harvested on day 3 12; these samples were immediately centrifuged at 1200 rpm for 10 min at 25° C. to remove any cells or debris. The top 80% of this volume was subsequently removed and stored at −80° C. for later assessment of cytokines via ELISA. Cells were fixed and stained for RAGE, phalloidin (cytoplasmic marker), and DAPI (nuclear marker) 13. Each channel was imaged with a Zeiss LSM 510 META Confocal Scanning Laser Microscope using a plan-neofluar 40×/1.3 oil DIC immersion objective; three of these multi-channel images were obtained from each slide in each experiment 14. All multi-channel images were converted to TIFF file format via ImageJ64 software for quantitative image analysis using a custom subroutine written in Matlab™ software to obtain the average RAGE expression per volume of cells, and the data generated was assessed for statistical significance using GraphPad Prism 7.0 software 15.
(§5) Images acquired via confocal microscopy were analyzed via custom MATLAB™ subroutine to determine the average quantity of RAGE present within a given volume of cells. Results within each experiment are normalized to the positive control (2 ng/mL LPS alone), indicated by the dashed line at 1. Significance relative to positive control is indicated as ** p<0.01. Error bars indicate SEM, n=4.
as §5, with “1.0.” for “1. Significance relative to positive control is indicated as ** p<0.01.”, “n=2.” for “n=4.”

[6] = test system: IL-6; assay: IL-6 in supernatant of THP-1 macrophages co-incubated with peptoid and LPS (ELISA); details: 3 days, vs LPS alone
Experimental: as §4, with “Each channel was imaged with a Zeiss LSM 510 META Confocal Scanning Laser Microscope using a plan-neofluar 40×/1.3 oil DIC immersion objective; three of these multi-channel images were obtained from each slide in each experiment 14.” left out
as §1
as §1, with “5B-5D,” for “2B-2D,”, “JPT1” for “JPT1a”, “5B)” for “2B)”, “5C)” for “2C)”, “5D)” for “2D)”

CC[C@H](C)N(CC(=O)N(CC(=O)N(CC(=O)N(CC(=O)N(CC(=O)N(CC(=O)N(CC(N)=O)[C@@H](C)c1ccccc1)[C@@H](C)c1ccccc1)[C@@H](C)CC)[C@@H](C)c1ccccc1)[C@@H](C)c1ccccc1)[C@@H](C)CC)C(=O)CNCCCCN [JPT1a] (H-[Nlys][N(1S-Me-propyl)Gly][N(1S-Me-propyl)Gly][Nspe][Nspe][N(1S-Me-propyl)Gly][Nspe][Nspe]-NH2)
reversal in LPS-induced RAGE expression ([1]; 5 μM added after 48 h of 2 ng/mL LPS): significant reversal | reversal in LPS-induced RAGE expression ([1]; 25 μM added after 48 h of 2 ng/mL LPS): significant reversal | levels of LPS-induced IL-8 ([2]; peptoid 10 μM with 2 ng/mL LPS): significantly reduces | LPS-induced production of IL-8 ([2]; peptoid 50 μM with 2 ng/mL LPS): significantly attenuates | IL-6 production of previously stimulated macrophages [3]: does not affect cytokine production | IL-8 production of previously stimulated macrophages [4]: does not affect cytokine production | upregulation in RAGE expression in the presence of LPS ([5]; peptoid 50, 10 or 2 μM with 2 ng/mL LPS, normalized to LPS alone): reduced in a dose-dependent and significant manner | expression of RAGE, peptoid alone ([5]; peptoid alone (no LPS), relative to the control): does not provoke significant response or upregulation | levels of LPS-induced IL-6 ([6]; peptoid 10 μM with 2 ng/mL LPS): significantly reduces | LPS-induced production of IL-6 ([6]; peptoid 50 μM with 2 ng/mL LPS): significantly attenuates
